Source: patent publication US20250352559A1, “Transdermal Delivery Composition for Delivery of at least one Glucose Controlling Agent, and Method of Delivering at least one Glucose Controlling Agent” (Skinvisible Pharmaceuticals, Inc., priority 2024, published 2025)

Legend:
[1] = system: 3T3-LI preadipocytes; settings: in vitro; cited from earlier work
[2] = system: animal models of diet-induced obesity; settings: cited from earlier work
[3] = preclinical studies, therapeutic doses; cited from earlier work
[4] = cited from earlier work
[5] = Franz Cell study, rate of diffusion across a cellulose membrane; format: in vitro ADME; settings: after 6 hours, transdermal formulation of 1% THCV
Procedure: A transdermal formulation of 1% THCV was prepared according to Table 1. The THCV formulation was subjected to a Franz Cell study, measuring the rate of diffusion across a cellulose membrane. As illustrated by the results, after 6 hours, 6.08 mg of THCV diffused across the cellulose membrane. The total dose of THCV applied to the membrane was 11.63 mg, and this calculates to a delivered dose of 52.3% of the THCV which is unexpected.

Compound | adipocyte differentiation and lipid accumulation [1] | body weight gain, adipose tissue mass, glucose tolerance and insulin sensitivity [2] | safety profile and tolerability [3] | also measured
CCCCCCc1nc(-c2ccc(Cl)cc2)n(-c2ccc(Cl)cc2Cl)n1 [LH-21] | inhibit adipocyte differentiation and lipid accumulation | reduce body weight gain, decrease adipose tissue mass, and improve glucose tolerance and insulin sensitivity | favorable safety profiles and are well-tolerated at therapeutic doses | 
CCCCCc1cc(O)cc(O)c1 [Olivetol] | inhibit adipocyte differentiation and lipid accumulation | reduce body weight gain, decrease adipose tissue mass, and improve glucose tolerance and insulin sensitivity | favorable safety profiles and are well-tolerated at therapeutic doses | 
Cc1c(C(=O)NN2CCCCC2)nn(-c2ccc(Cl)cc2Cl)c1-c1ccc(Cl)cc1 [rimonabant] |  | reduce body weight gain, decrease adipose tissue mass, and improve glucose tolerance and insulin sensitivity |  | clinical safety ([4]; marketed use, later withdrawn): increased risk of psychiatric adverse effects
C[C@H](NC(=O)C(C)(C)Oc1ccc(C(F)(F)F)cn1)[C@@H](Cc1ccc(Cl)cc1)c1cccc(C#N)c1 [taranabant] |  | reduce body weight gain, decrease adipose tissue mass, and improve glucose tolerance and insulin sensitivity |  | body weight and metabolic parameters in clinical trials ([4]; clinical trials for the treatment of obesity): promising results in reducing body weight and improving metabolic parameters
Tetrahydrocannabivarin [THCV] |  |  |  | delivered dose of the THCV ([5]; 6.08 mg of 11.63 mg applied): 52.3%; THCV diffused across the cellulose membrane ([5]; total dose applied 11.63 mg): 6.08 mg
